The term IC50 denotes the concentration that gives 50% inhibition.

The target in one experiment is T1, PD-1/PD-L1 interaction (PD-1-Ig / PD-L1-His) (Homo sapiens, UniProt Q9NZQ7).
T1 construct: hPDL1(18-239)-TVMV-His; TVMV protease site linker (C); made in house; host or cells: HEK293T
T1 sequence (Q9NZQ7 with tags, fused parts or gaps): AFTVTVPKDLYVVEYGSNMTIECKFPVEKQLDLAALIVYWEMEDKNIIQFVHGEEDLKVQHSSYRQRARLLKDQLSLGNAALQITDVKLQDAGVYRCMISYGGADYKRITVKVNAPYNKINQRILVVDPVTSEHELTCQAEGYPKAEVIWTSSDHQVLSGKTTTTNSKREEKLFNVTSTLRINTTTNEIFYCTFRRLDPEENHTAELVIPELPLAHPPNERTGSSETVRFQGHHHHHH
As to the kind of experiment: PD-1/PD-L1 Homogenous Time-Resolved Fluorescence (HTRF) binding assay. Particulars: IC50 range class; PD-L1-His 10 nM, PD-1-Ig 20 nM; read-out: Range or IC50. The gist of the method:
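HTRF detection used 1 nM europium-cryptate anti-Ig and 20 nM APC anti-His. Compounds first saw 10 nM PD-L1-His for 15 min, and 20 nM PD-1-Ig was then added for another 15 min. Buffer was dPBS plus 0.1% BSA and 0.05% Tween-20. All concentrations are final.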
`Cc1c(COc2cc(OCc3cncc(C#N)c3)c(CN[C@](C)(CO)C(=O)O)cc2Cl)cccc1-c1cccc(COc2cc(OCc3cncc(C#N)c3)c(CN[C@](C)(CO)C(=O)O)cc2Cl)c1C` [Example 2121, (2R,2′R)-2,2′-((((((2,2′-dimethyl-[1,1′-biphenyl]-3,3′-diyl)bis(methylene))bis(oxy))bis(5-chloro-2-((5-cyanopyridin-3-yl)methoxy)-4,1-phenylene))bis(methylene))bis(azanediyl))bis(3-hydroxy-2-methylpropanoic acid)]: the IC50 lay in the range of 0.04 to 20 nM.
The same measure, in the same setting: next, `COc1cc(OCc2cccc(-c3cccc(COc4cc(OC)c(CNC(CO)CO)cc4Cl)c3C)c2C)c(Cl)cc1CNC(CO)CO` [Example 2122, 2,2′-((((((2,2′-dimethyl-[1,1′-biphenyl]-3,3′-diyl)bis(methylene))bis(oxy))bis(5-chloro-2-methoxy-4,1-phenylene))bis(methylene))bis(azanediyl))bis(propane-1,3-diol)]: 0.04 to 20 nM; `Cc1c(COc2cc(OCc3cncc(C#N)c3)c(CN[C@@](C)(CO)C(=O)O)cc2Cl)cccc1-c1cccc(COc2cc(OCc3cncc(C#N)c3)c(CN[C@@](C)(CO)C(=O)O)cc2Cl)c1C` [Example 2123, (2S,2′S)-2,2′-((((((2,2′-dimethyl-[1,1′-biphenyl]-3,3′-diyl)bis(methylene))bis(oxy))bis(5-chloro-2-((5-cyanopyridin-3-yl)methoxy)-4,1-phenylene))bis(methylene))bis(azanediyl))bis(3-hydroxy-2-methylpropanoic acid)]: 0.04 to 20 nM; `Cc1c(COc2cc(OCc3cncc(C#N)c3)c(CO)cc2Cl)cccc1-c1cccc(COc2cc(OCc3cncc(C#N)c3)c(CN[C@@](C)(CO)C(=O)O)cc2Cl)c1C` [Example 2124, (S)-2-((5-chloro-4-((3′-((2-chloro-5-((5-cyanopyridin-3-yl)methoxy)-4-(hydroxymethyl)phenoxy)methyl)-2,2′-dimethyl-[1,1′-biphenyl]-3-yl)methoxy)-2-((5-cyanopyridin-3-yl)methoxy)benzyl)amino)-3-hydroxy-2-methylpropanoic acid]: 0.04 to 20 nM.
Take `Cc1c(COc2cc(OCc3cncc(C#N)c3)c(CN3CC[C@@H](O)C3)cc2Cl)cccc1-c1cccc(COc2cc(OCc3cncc(C#N)c3)c(CN3CC[C@@H](O)C3)cc2Cl)c1C` [Example 2125, 5,5′-((((((2,2′-dimethyl-[1,1′-biphenyl]-3,3′-diyl)bis(methylene))bis(oxy))bis(4-chloro-6-(((R)-3-hydroxypyrrolidin-1-yl)methyl)-3,1-phenylene))bis(oxy))bis(methylene))dinicotinonitrile]: the IC50 fell in the range of 0.04 to 20 nM.
Turning to `Cc1c(COc2cc(OCc3cncc(C#N)c3)c(CO)cc2Cl)cccc1-c1cccc(COc2cc(OCc3cncc(C#N)c3)c(CN3CC[C@@H](O)C3)cc2Cl)c1C` [Example 2126, (R)-5-((4-chloro-5-((3′-((2-chloro-5-((5-cyanopyridin-3-yl)methoxy)-4-((3-hydroxypyrrolidin-1-yl)methyl)phenoxy)methyl)-2,2′-dimethyl-[1,1′-biphenyl]-3-yl)methoxy)-2-(hydroxymethyl)phenoxy)methyl)nicotinonitrile], the IC50 fell in the range of 20.1 to 90 nM.
`Cc1c(COc2cc(OCc3cncc(C#N)c3)c(CNC[C@H](O)CO)cc2Cl)cccc1-c1cccc(COc2cc(OCc3cncc(C#N)c3)c(CNC[C@H](O)CO)cc2Cl)c1C` [Example 2127, 5,5′-((((((2,2′-dimethyl-[1,1′-biphenyl]-3,3′-diyl)bis(methylene))bis(oxy))bis(4-chloro-6-((((S)-2,3-dihydroxypropyl)amino)methyl)-3,1-phenylene))bis(oxy))bis(methylene))dinicotinonitrile]: the IC50 lay within 0.04 to 20 nM.
On the same count and under the same terms, next, `Cc1c(COc2cc(OCc3cncc(C#N)c3)c(CNC(CO)CO)cc2Cl)cccc1-c1cccc(COc2cc(OCc3cncc(C#N)c3)c(CNC(CO)CO)cc2Cl)c1C` [Example 2128, 5,5′-((((((2,2′-dimethyl-[1,1′-biphenyl]-3,3′-diyl)bis(methylene))bis(oxy))bis(4-chloro-6-(((1,3-dihydroxypropan-2-yl)amino)methyl)-3,1-phenylene))bis(oxy))bis(methylene))dinicotinonitrile]: 0.04 to 20 nM; `Cc1c(COc2cc(OCc3cncc(C#N)c3)c(CO)cc2Cl)cccc1-c1cccc(COc2cc(OCc3cncc(C#N)c3)c(CNC(CO)CO)cc2Cl)c1C` [Example 2129, 5-((4-chloro-5-((3′-((2-chloro-5-((5-cyanopyridin-3-yl)methoxy)-4-(((1,3-dihydroxypropan-2-yl)amino)methyl)phenoxy)methyl)-2,2′-dimethyl-[1,1′-biphenyl]-3-yl)methoxy)-2-(hydroxymethyl)phenoxy)methyl)nicotinonitrile]: 90.1 to 1000 nM.
On to `Cc1c(COc2cc(OCc3cncc(C#N)c3)c(CN(C[C@H](O)CO)C(CO)CO)cc2Cl)cccc1-c1cccc(COc2cc(OCc3cncc(C#N)c3)c(CN(C[C@H](O)CO)C(CO)CO)cc2Cl)c1C` [Example 2131, 5,5′-((((((2,2′-dimethyl-[1,1′-biphenyl]-3,3′-diyl)bis(methylene))bis(oxy))bis(4-chloro-6-(((1,3-dihydroxypropan-2-yl)((S)-2,3-dihydroxypropyl)amino)methyl)-3,1-phenylene))bis(oxy))bis(methylene))dinicotinonitrile], for which the IC50 lay in the range of 0.04 to 20 nM.
The same measure, in the same setting: the figure for `Cc1c(OCCCNC2C[C@H](CO)[C@@H](O)[C@H]2O)cccc1-c1cccc(OCCCN[C@@H]2C[C@H](CO)[C@@H](O)[C@H]2O)c1C` (stereo partly drawn) [Example 2132, (1R,2S,5R)-3-((3-((3′-(3-(((1R,2S,3R,4R)-2,3-dihydroxy-4-(hydroxymethyl)cyclopentyl)amino)propoxy)-2,2′-dimethyl-[1,1′-biphenyl]-3-yl)oxy)propyl)amino)-5-(hydroxymethyl)cyclopentane-1,2-diol] is 0.04 to 20 nM; for `Cc1c(COc2cc(OCc3cncc(C#N)c3)c(CN3C(=O)OCC3CO)cc2Cl)cccc1-c1cccc(COc2cc(OCc3cncc(C#N)c3)c(CN3C(=O)OCC3CO)cc2Cl)c1C` (stereo not drawn) [Example 2133, 5,5′-((((((2,2′-dimethyl-[1,1′-biphenyl]-3,3′-diyl)bis(methylene))bis(oxy))bis(4-chloro-6-((4-(hydroxymethyl)-2-oxooxazolidin-3-yl)methyl)-3,1-phenylene))bis(oxy))bis(methylene))dinicotinonitrile] it is 90.1 to 1000 nM.
Same read-out and setting: next, `NCCCOc1cccc(-c2cccc(OCCCN)c2Cl)c1Cl` [Example 2134, 3,3′-((2,2′-dichloro-[1,1′-biphenyl]-3,3′-diyl)bis(oxy))bis(propan-1-amine)]: 90.1 to 1000 nM.
Still for that read-out and setting: the figure for `O=C(NCCCOc1cccc(-c2cccc(OCCCNC(=O)C(O)CO)c2Cl)c1Cl)C(O)CO` (stereo not drawn) [Example 2135, N,N′-(((2,2′-dichloro-[1,1′-biphenyl]-3,3′-diyl)bis(oxy))bis(propane-3,1-diyl))bis(2,3-dihydroxypropanamide)] is 1000 to 10000 nM.

The same experiment, now with this note: numeric IC50; PD-L1-His 10 nM, PD-1-Ig 20 nM; read-out: Range or IC50.
On to `O=C(O)C[C@@H](O)C(=O)NCCCOc1cccc(-c2cccc(OCCCNC(=O)[C@H](O)CC(=O)O)c2Cl)c1Cl` [Example 2136, (3R,3′R)-4,4′-((((2,2′-dichloro-[1,1′-biphenyl]-3,3′-diyl)bis(oxy))bis(propane-3,1-diyl))bis(azanediyl))bis(3-hydroxy-4-oxobutanoic acid)], for which the IC50 was found to be 3450 nM.

Source of the values: patent publication US10144706B2 (BRISTOL-MYERS SQUIBB COMPANY, priority 2016, dated 2018).
